Test results: US11453677B2 (priority 2016, dated 2022)

Tests used:
Assay type in all cases: cell-based
[1] = tested on: influenza A virus minigenome (PB2, PB1, PA, NP) RNP_Alaska in 293T cells; test: cells; settings: HEK-293T, 48 h, read-out: RNP_Alaska EC50
[2] = tested on: influenza A virus minigenome (PB2, PB1, PA, NP) RNP_CAL in 293T cells; test: cells; settings: HEK-293T, 48 h, read-out: RNP_CAL_EC50
[3] = tested on: influenza virus minigenome (PB2, PB1, PA, NP) RNP_Hubei in 293T cells; test: cells; settings: unidentified influenza virus, HEK-293T, 48 h, read-out: RNP_Hubei EC50
[4] = tested on: influenza virus H1N1 in MDCK cells; settings: MOI 0.005, 48 hours, neuraminidase activity, read-out: NA_VIR_H1N1 EC50
From the text: (§1) Influenza Virus Neuraminidase Assay (NA Assay)

[5] = tested on: influenza virus H3N2 in MDCK cells; settings: MOI 0.005, 48 hours, neuraminidase activity, read-out: NA_VIR_H3N2 EC50
From the text: as §1

Structure (SMILES) | EC50 [1] [µM] | EC50 [2] [µM] | EC50 [3] [µM] | EC50 [4] [µM] | EC50 [5] [µM]
Cc1ccccc1[C@H](c1ccc(F)cc1)[C@H]1Cn2c(CO)cnc2-c2c(O)c(=O)cnn21 [Example 51, (S)-6-((S)-(4-fluorophenyl)(o-tolyl)methyl)-11-hydroxy-3-(hydroxymethyl)-5,6-dihydro-10H-imidazo[2′,1′:3,4]pyrazino[1,2-b]pyridazin-10-one] | 0.23 | 0.09 | 0.16 | – | –
O=c1ccn2c(c1O)-c1ncc(-c3cn[nH]c3)n1C[C@@H]2C(c1ccccc1)c1ccccc1 [Example 52, (S)-6-benzhydryl-11-hydroxy-3-(1H-pyrazol-4-yl)-5,6-dihydro-10H-imidazo[1,2-a]pyrido[2,1-c]pyrazin-10-one] | 5.1 | 8.3 | 0.97 | – | –
O=c1ccn2c(c1O)-c1ncc(-c3ccccc3)n1C[C@@H]2C(c1ccccc1)c1ccccc1 [Example 53, (S)-6-benzhydryl-11-hydroxy-3-phenyl-5H-imidazo [1,2-a] pyrido[2,1-c]pyrazin-10(6H)-one] | 0.54 | 3 | 0.19 | – | –
CC(O)c1cnc2n1C[C@H](C(c1ccccc1)c1ccccc1)n1ccc(=O)c(O)c1-2 (stereo partly drawn) [Example 55, (6S)-6-benzhydryl-11-hydroxy-3-(1-hydroxyethyl)-5H-imidazo [1,2-a]pyrido[2,1-c]pyrazin-10(6H)-one] | 2.6 | 1.7 | 6.6 | – | –
COCc1cnc2n1C[C@H](C(c1ccccc1)c1ccccc1)n1ccc(=O)c(O)c1-2 [Example 56, (S)-6-benzhydryl-11-hydroxy-3-(methoxymethyl)-5H-imidazo [1,2-a]pyrido[2,1-c]pyrazin-10(6H)-one] | 0.28 | 0.092 | 0.27 | – | –
O=c1ccn2c(c1O)-c1ncc(C(F)F)n1C[C@@H]2C(c1ccccc1)c1ccccc1 [Example 57, (S)-6-benzhydryl-3-(difluoromethyl)-11-hydroxy-5H-imidazo[1,2-a]pyrido[2,1-c]pyrazin-10(6H)-one] | 0.22 | 0.18 | 0.58 | – | –
O=c1ccn2c(c1O)-c1ncc(C(F)(F)F)n1C[C@@H]2C(c1ccccc1)c1ccccc1 [Example 58, (S)-6-benzhydryl-11-hydroxy-3-(trifluoromethyl)-5H-imidazo[1,2-a]pyrido[2,1-c]pyrazin-10(6H)-one] | – | – | – | 0.2 | –
O=c1ccn2c(c1O)-c1ncc(CN3CCSCC3)n1C[C@@H]2C(c1ccccc1)c1ccccc1 [Example 62, (S)-6-benzhydryl-11-hydroxy-3-(thiomorpholinomethyl)-5,6-dihydro-10H-imidazo[1,2-a]pyrido[2,1-c]pyrazin-10-one] | 1.9 | 0.64 | 1.5 | – | –
O=c1ccn2c(c1O)-c1ncc(CNC3CCOCC3)n1C[C@@H]2C(c1ccccc1)c1ccccc1 [Example 65, (S)-6-benzhydryl-11-hydroxy-3-(((tetrahydro-2H-pyran-4-yl)amino)methyl)-5,6-dihydro-10H-imidazo[1,2-a]pyrido[2,1-c]pyrazin-10-one] | 4.8 | 3.5 | 4.9 | – | –
C[C@@H](NCc1cnc2n1C[C@H](C(c1ccccc1)c1ccccc1)n1ccc(=O)c(O)c1-2)C(F)(F)F [Example 66, (S)-6-benzhydryl-11-hydroxy-3-((((R)-1,1,1-trifluoropropan-2-yl)amino)methyl)-5,6-dihydro-10H-imidazo[1,2-a]pyrido[2,1-c]pyrazin-10-one] | 0.72 | 0.31 | 0.63 | – | –
O=c1ccn2c(c1O)-c1ncc(CN3CCOCC3)n1C[C@@H]2C(c1ccccc1)c1ccccc1 [Example 67, (S)-6-benzhydryl-11-hydroxy-3-(morpholinomethyl)-5,6-dihydro-10H-imidazo[1,2-a]pyrido[2,1-c]pyrazin-10-one] | – | – | – | – | 10
CNC(=O)c1cnc2n1C[C@H](C(c1ccccc1)c1ccccc1)n1ccc(=O)c(O)c1-2 [Example 69, (S)-6-benzhydryl-11-hydroxy-N-methyl-10-oxo-5,6-dihydro-10H-imidazo[1,2-a]pyrido[2,1-c]pyrazine-3-carboxamide] | – | – | – | – | > 50
O=C(NC1CC1)c1cnc2n1C[C@H](C(c1ccccc1)c1ccccc1)n1ccc(=O)c(O)c1-2 [Example 70, (S)-6-benzhydryl-N-cyclopropyl-11-hydroxy-10-oxo-5,6-dihydro-10H-imidazo[1,2-a]pyrido[2,1-c]pyrazine-3-carboxamide] | 6.4 | 1.7 | 12.3 | – | –
COCCNC(=O)c1cnc2n1C[C@H](C(c1ccccc1)c1ccccc1)n1ccc(=O)c(O)c1-2 [Example 71, (S)-6-benzhydryl-11-hydroxy-N-(2-methoxyethyl)-10-oxo-5,6-dihydro-10H-imidazo[1,2-a]pyrido[2,1-c]pyrazine-3-carboxamide] | – | – | – | – | > 50
O=C(c1cnc2n1C[C@H](C(c1ccccc1)c1ccccc1)n1ccc(=O)c(O)c1-2)N1CCCC1 [Example 72, (S)-6-benzhydryl-11-hydroxy-3-(pyrrolidine-1-carbonyl)-5,6-dihydro-10H-imidazo[1,2-a]pyrido[2,1-c]pyrazin-10-one] | 3 | 1.7 | 5.5 | – | –
O=c1ccn2c(c1O)-c1nccn1CN2C1c2ccccc2CSc2ccccc21 (stereo not drawn) [Example 74, 6-(6,11-dihydrodibenzo[b,e]thiepin-11-yl)-11-hydroxy-5,6-dihydro-10H-imidazo[1,2-d]pyrido[2,1-f][1,2,4]triazin-10-one] | 0.13 | 0.084 | 0.26 | – | –
CC1(C)N(C(c2ccccc2)c2ccccc2)n2ccc(=O)c(O)c2-c2nccn21 [Example 75, 6-benzhydryl-11-hydroxy-5,5-dimethyl-5,6-dihydro-10H-imidazo[1,2-d]pyrido[2,1-f][1,2,4]triazin-10-one] | 0.48 | 0.3 | 0.4 | – | –
O=c1ccn2c(c1O)-c1nccn1C(C1CC1)N2C1c2ccccc2CSc2ccccc21 (stereo not drawn) [Example 76, 5-cyclopropyl-6-(6,11-dihydrodibenzo[b,e]thiepin-11-yl)-11-hydroxy-5,6-dihydro-10H-imidazo[1,2-d]pyrido[2,1-f][1,2,4]triazin-10-one] | 0.43 | 0.16 | 0.67 | – | –
CCC1N(C(c2ccccc2)c2ccccc2)n2ccc(=O)c(O)c2-c2nccn21 (stereo not drawn) [Example 78, 6-benzhydryl-5-ethyl-11-hydroxy-5,6-dihydro-10H-imidazo[1,2-d]pyrido[2,1-f][1,2,4]triazin-10-one] | 0.25 | 0.18 | 0.34 | – | –
O=c1ccn2c(c1O)-c1nccn1C1(COC1)N2C1c2ccccc2CSc2ccccc21 (stereo not drawn) [Example 80, 6-(6,11-dihydrodibenzo[b,e]thiepin-11-yl)-11-hydroxy-6H,10H-spiro[imidazo[1,2-d]pyrido[2,1-f][1,2,4]triazine-5,3′-oxetan]-10-one] | 0.17 | 0.01 | 0.027 | – | –
Cn1cnc2c1CN(C(c1ccccc1)c1ccccc1)n1ccc(=O)c(O)c1-2 [Example 82, 5-benzhydryl-10-hydroxy-3-methyl-4,5-dihydroimidazo[4,5-d]pyrido[1,2-b]pyridazin-9(3H)-one] | – | – | – | 1 | 4
O=c1ccn2c(c1O)-c1ncoc1CN2C(c1ccccc1)c1ccccc1 [Example 83, 5-benzhydryl-10-hydroxy-4,5-dihydro-9H-oxazolo[4,5-d]pyrido[1,2-b]pyridazin-9-one] | 0.96 | 0.97 | 0.73 | – | –
O=c1ccn2c(c1O)-c1ocnc1CN2C(c1ccccc1)c1ccccc1 [Example 84, 5-benzhydryl-10-hydroxy-4,5-dihydro-9H-oxazolo[5,4-d]pyrido[1,2-b]pyridazin-9-one] | 14 | 11 | 16 | – | –
CC(=O)Oc1c2n(ncc1=O)[C@@H](C(c1ccc(F)cc1)c1ccc(F)cc1)Cn1ccnc1-2 [Example 85, (S)-6-(bis(4-fluorophenyl)methyl)-10-oxo-5,6-dihydro-10H-imidazo[2′,1′:3,4]pyrazino[1,2-b]pyridazin-11-yl acetate] | 0.019 | 0.022 | 0.049 | – | –
CC(C)C(=O)Oc1c2n(ncc1=O)[C@@H](C(c1ccc(F)cc1)c1ccc(F)cc1)Cn1ccnc1-2 [Example 86, (S)-6-(bis(4-fluorophenyl)methyl)-10-oxo-5,6-dihydro-10H-imidazo[2′,1′:3,4]pyrazino[1,2-b]pyridazin-11-yl Isobutyrate] | 0.03 | 0.021 | 0.047 | – | –
CC(C)CC(=O)Oc1c2n(ncc1=O)[C@@H](C(c1ccc(F)cc1)c1ccc(F)cc1)Cn1ccnc1-2 [Example 87, (S)-6-(bis(4-fluorophenyl)methyl)-10-oxo-5,6-dihydro-10H-imidazo[2′,1′:3,4]pyrazino[1,2-b]pyridazin-11-yl 3-methylbutanoate] | 0.027 | 0.021 | 0.043 | – | –
COC(=O)OCOc1c2n(ncc1=O)[C@@H](C(c1ccc(F)cc1)c1ccc(F)cc1)Cn1ccnc1-2 [Example 88, (S)-((6-(bis(4-fluorophenyl)methyl)-10-oxo-5,6-dihydro-10H-imidazo[2′,1′:3,4]pyrazino[1,2-b]pyridazin-11-yl)oxy)methyl methyl Carbonate] | 0.032 | 0.042 | 0.089 | – | –
